This is an account of results in patent US11084800B2 (Achillion Pharmaceuticals, Inc., priority 2017, dated 2021).

Structures are written as SMILES. pIC50: −log10 of the molar value.

One test deals with Human Factor D (Homo sapiens (Human), UniProt P00746). Briefly: Human Factor D Assay. Format: biochemical.
Sequence of Human Factor D (P00746 26-253): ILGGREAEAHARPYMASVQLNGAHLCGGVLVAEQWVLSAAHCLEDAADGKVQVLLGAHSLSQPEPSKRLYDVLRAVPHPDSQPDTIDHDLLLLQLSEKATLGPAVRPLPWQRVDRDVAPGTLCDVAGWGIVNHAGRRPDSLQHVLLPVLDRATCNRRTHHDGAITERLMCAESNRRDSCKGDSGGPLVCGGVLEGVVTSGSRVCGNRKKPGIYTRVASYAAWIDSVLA
Conditions: not given
The gist of the method: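 Serum-purified Factor D (80 nM final) preincubated 5 min at room temperature with compound in 50 mM Tris, 1 M NaCl, pH 7.5. Z-L-Lys-SBz and DTNB added at 100 μM each; A405 followed every 30 s for 30 min. IC50 from nonlinear regression of rates versus concentration.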
In turn, `CC(=O)c1nn(CC(=O)N2[C@H](C(=O)NC(Cc3ccccc3)Cc3ccccc3)C[C@@]3(C)C[C@@H]23)c2c(C)cc(-c3cnc(C)nc3)cc12` [Compound 505, (1R,3S,5R)-2-(2-(3-Acetyl-7-methyl-5-(2-methylpyrimidin-5-yl)-1H-indazol-1-yl)acetyl)-N-(1,3-diphenylpropan-2-yl)-5-methyl-2-azabicyclo[3.1.0]hexane-3-carboxamide] gave a pIC50 of 5.00 to 6.00.

The same test, now with this note: Factor D inhibition, assay of Example 10; read-out: IC5 (Stars).
With `CC(=O)c1nn(CC(=O)N2[C@H](C(=O)Nc3cc(C)cc(Br)n3)C[C@@]3(C)C[C@@H]23)c2ccc(-c3cnc(C)nc3)cc12` [Compound 492, (1R,3S,5R)-2-(2-(3-acetyl-5-(2-methylpyrimidin-5-yl)-1H-indazol-1-yl)acetyl)-N-(6-bromo-4-methylpyridin-2-yl)-5-methyl-2-azabicyclo[3.1.0]hexane-3-carboxamide], the pIC50 was over 6.00.

As to `CC(=O)c1nn(CC(=O)N2[C@H](C(=O)Nc3cc(C(=O)O)cc(Br)n3)C[C@@]3(C)C[C@@H]23)c2ccc(-c3cnc(C)nc3)cc12` [Compound 493, 2-[(1R,3S,5R)-2-{2-[3-Acetyl-5-(2-methylpyrimidin-5-yl)indazol-1-yl]acetyl}-5-methyl-2-azabicyclo[3.1.0]hexane-3-amido]-6-bromopyridine-4-carboxylic Acid], the pIC50 is over 6.00.

Regarding `COc1cc(-c2cnc(C)nc2)cc2c(C(C)=O)nn(CC(=O)N3[C@H](C(=O)Nc4nc(Br)ccc4C)C[C@@]4(C)C[C@@H]34)c12` [Compound 494, (1R,3S,5R)-2-(2-(3-acetyl-7-methoxy-5-(2-methylpyrimidin-5-yl)-1H-indazol-1-yl)acetyl)-N-(6-bromo-3-methylpyridin-2-yl)-5-methyl-2-azabicyclo[3.1.0]hexane-3-carboxamide], the pIC50 was over 6.00.

As for `CC(=O)c1nn(CC(=O)N2[C@H](C(=O)NCC(=O)O)C[C@@]3(C)C[C@@H]23)c2c(C)cc(-c3cnc(C)nc3)cc12` [Compound 495, ((1R,3S,5R)-2-(2-(3-acetyl-7-methyl-5-(2-methylpyrimidin-5-yl)-1H-indazol-1-yl)acetyl)-5-methyl-2-azabicyclo[3.1.0]hexane-3-carbonyl)glycine], the pIC50 was 5.00 to 6.00.

Turning to `CC(=O)c1nn(CC(=O)N2[C@H](C(=O)NCCC(=O)O)C[C@@]3(C)C[C@@H]23)c2c(C)cc(-c3cnc(C)nc3)cc12` [Compound 497, 3-((1R,3S,5R)-2-(2-(3-acetyl-7-methyl-5-(2-methylpyrimidin-5-yl)-1H-indazol-1-yl)acetyl)-5-methyl-2-azabicyclo[3.1.0]hexane-3-carboxamido)propanoic acid], the pIC50 was over 6.00.

As to `CC(=O)c1nn(CC(=O)N2[C@H](C(=O)NCCCC(=O)O)C[C@@]3(C)C[C@@H]23)c2c(C)cc(-c3cnc(C)nc3)cc12` [Compound 498, 4-((1R,3S,5R)-2-(2-(3-acetyl-7-methyl-5-(2-methylpyrimidin-5-yl)-1H-indazol-1-yl)acetyl)-5-methyl-2-azabicyclo[3.1.0]hexane-3-carboxamido)butanoic acid], the pIC50 was over 6.00.

On to `CC(=O)c1nn(CC(=O)N2[C@H](C(=O)NC(C)(C)c3cccc(Cl)c3F)C[C@@]3(C)C[C@@H]23)c2c(C)cc(-c3cnc(C)nc3)cc12` [Compound 502, (1R,3S,5R)-2-(2-(3-acetyl-7-methyl-5-(2-methylpyrimidin-5-yl)-1H-indazol-1-yl)acetyl)-N-(2-(3-chloro-2-fluorophenyl)propan-2-yl)-5-methyl-2-azabicyclo[3.1.0]hexane-3-carboxamide], for which the pIC50 was over 6.00.

With `CC(=O)c1nn(CC(=O)N2[C@H](C(=O)Nc3cc(C(N)=O)cc(Br)n3)C[C@@]3(C)C[C@@H]23)c2ccc(-c3cnc(C)nc3)cc12` [Compound 503, (1R,3S,5R)-2-(2-(3-acetyl-5-(2-methylpyrimidin-5-yl)-1H-indazol-1-yl)acetyl)-N-(6-bromo-4-carbamoylpyridin-2-yl)-5-methyl-2-azabicyclo[3.1.0]hexane-3-carboxamide], the pIC50 was over 6.00.

In the case of `CC(=O)c1nn(CC(=O)N2[C@H](C(=O)Nc3cc(OCc4ccccc4)cc(Br)n3)C[C@@]3(C)C[C@@H]23)c2ccc(-c3cnc(C)nc3)cc12` [Compound 504, (1R,3S,5R)-2-(2-(3-acetyl-5-(2-methylpyrimidin-5-yl)-1H-indazol-1-yl)acetyl)-N-(4-(benzyloxy)-6-bromopyridin-2-yl)-5-methyl-2-azabicyclo[3.1.0]hexane-3-carboxamide], the pIC50 is over 6.00.

For `CNC(=O)[C@@H]1C[C@@]2(C)C[C@H]2N1C(=O)Cn1nc(C(C)=O)c2cc(-c3cnc(C)nc3)cc(C)c21` [Compound 513, (1R,3S,5R)-2-(2-(3-acetyl-7-methyl-5-(2-methylpyrimidin-5-yl)-1H-indazol-1-yl)acetyl)-N,5-dimethyl-2-azabicyclo[3.1.0]hexane-3-carboxamide], the pIC50 is over 6.00.

For the compound `CC(=O)c1nn(CC(=O)N2[C@H](C(=O)Nc3cc(CC(=O)O)cc(Br)n3)C[C@@]3(C)C[C@@H]23)c2ccc(-c3cnc(C)nc3)cc12` [Compound 514, 2-(2-((1R,3S,5R)-2-(2-(3-acetyl-5-(2-methylpyrimidin-5-yl)-1H-indazol-1-yl)acetyl)-5-methyl-2-azabicyclo[3.1.0]hexane-3-carboxamido)-6-bromopyridin-4-yl)acetic Acid], the pIC50 was over 6.00.

Consider `CCCc1cc(Br)nc(NC(=O)[C@@H]2C[C@@]3(C)C[C@H]3N2C(=O)Cn2nc(C(C)=O)c3cc(-c4cnc(C)nc4)ccc32)c1` [Compound 516, (1R,3S,5R)-2-(2-(3-Acetyl-5-(2-methylpyrimidin-5-yl)-1H-indazol-1-yl)acetyl)-N-(6-bromo-4-propylpyridin-2-yl)-5-methyl-2-azabicyclo[3.1.0]hexane-3-carboxamide], for which the pIC50 was 5.00 to 6.00.

In the case of `CC(=O)c1nn(CC(=O)N2[C@H](C(=O)NC(CC(C)C)CC(C)C)C[C@@]3(C)C[C@@H]23)c2c(C)cc(-c3cnc(C)nc3)cc12` [Compound 517, (1R,3S,5R)-2-(2-(3-acetyl-7-methyl-5-(2-methylpyrimidin-5-yl)-1H-indazol-1-yl)acetyl)-N-(2,6-dimethylheptan-4-yl)-5-methyl-2-azabicyclo[3.1.0]hexane-3-carboxamide], the pIC50 was over 6.00.

Regarding `CNCCCNC(=O)[C@@H]1C[C@@]2(C)C[C@H]2N1C(=O)Cn1nc(C(C)=O)c2cc(-c3cnc(C)nc3)ccc21` [Compound 519, (1R,3S,5R)-2-(2-(3-acetyl-5-(2-methylpyrimidin-5-yl)-1H-indazol-1-yl)acetyl)-5-methyl-N-(3-(methylamino)propyl)-2-azabicyclo[3.1.0]hexane-3-carboxamide], the pIC50 is 5.00 to 6.00.

On to `CC(=O)c1nn(CC(=O)N2[C@H](C(=O)NCCCN(C)C)C[C@@]3(C)C[C@@H]23)c2ccc(-c3cnc(C)nc3)cc12` [Compound 520, (1R,3S,5R)-2-(2-(3-acetyl-5-(2-methylpyrimidin-5-yl)-1H-indazol-1-yl)acetyl)-N-(3-(dimethylamino)propyl)-5-methyl-2-azabicyclo[3.1.0]hexane-3-carboxamide], for which the pIC50 was 5.00 to 6.00.

With `CC(=O)c1nn(CC(=O)N2[C@H](C(=O)Nc3nc(Br)ccc3C)C[C@@]3(C)C[C@@H]23)c2c(CO)cc(-c3cnc(C)nc3)cc12` [Compound 526, (1R,3S,5R)-2-(2-(3-Acetyl-7-(hydroxymethyl)-5-(2-methylpyrimidin-5-yl)-1H-indazol-1-yl)acetyl)-N-(6-bromo-3-methylpyridin-2-yl)-5-methyl-2-azabicyclo[3.1.0]hexane-3-carboxamide], the pIC50 was over 6.00.

Staying with this test, now noted: Table 8; Factor D 80 nM, substrate Z-L-Lys-SBz; read-out: IC50.
As for `Cc1ncc(-c2ccc3c(c2)c(C(=O)NCCN(C)C)nn3CC(=O)N2[C@H](C(=O)Nc3nc(Br)ccc3C)C[C@@]3(C)C[C@@H]23)cn1` [Compound 491, 1-(2-((1R,3S,5R)-3-((6-bromo-3-methylpyridin-2-yl)carbamoyl)-5-methyl-2-azabicyclo[3.1.0]hexan-2-yl)-2-oxoethyl)-N-(2-(dimethylamino)ethyl)-5-(2-methylpyrimidin-5-yl)-1H-indazole-3-carboxamide], the pIC50 was under 5.00.

Regarding `Cc1ncc(-c2ccc3c(c2)c(C(=O)NCC(F)(F)F)nn3CC(=O)N2[C@H](C(=O)Nc3nc(Br)ccc3C)C[C@@]3(C)C[C@@H]23)cn1` [Compound 499, 1-(2-((1R,3S,5R)-3-((6-bromo-3-methylpyridin-2-yl)carbamoyl)-5-methyl-2-azabicyclo[3.1.0]hexan-2-yl)-2-oxoethyl)-5-(2-methylpyrimidin-5-yl)-N-(2,2,2-trifluoroethyl)-1H-indazole-3-carboxamide], the pIC50 is over 6.00.

Regarding `Cc1ncc(-c2ccc3c(c2)c(C(=O)NCC(C)C)nn3CC(=O)N2[C@H](C(=O)Nc3nc(Br)ccc3C)C[C@@]3(C)C[C@@H]23)cn1` [Compound 500, 1-(2-((1R,3S,5R)-3-((6-bromo-3-methylpyridin-2-yl)carbamoyl)-5-methyl-2-azabicyclo[3.1.0]hexan-2-yl)-2-oxoethyl)-N-isobutyl-5-(2-methylpyrimidin-5-yl)-1H-indazole-3-carboxamide], the pIC50 was over 6.00.

In the case of `Cc1ncc(-c2cc(C#N)c3c(c2)c(C(N)=O)nn3CC(=O)N2[C@H](C(=O)Nc3nc(Br)ccc3C)C[C@@]3(C)C[C@@H]23)cn1` [Compound 515], the pIC50 is over 6.00.

Regarding `CCCCCCCNC(=O)[C@@H]1C[C@@]2(C)C[C@H]2N1C(=O)Cn1nc(C(C)=O)c2cc(-c3cnc(C)nc3)cc(C)c21` [Compound 527, (1R,3S,5R)-2-(2-(3-acetyl-7-methyl-5-(2-methylpyrimidin-5-yl)-1H-indazol-1-yl)acetyl)-N-heptyl-5-methyl-2-azabicyclo[3.1.0]hexane-3-carboxamide], the pIC50 is over 6.00.

Turning to `CCCCCCCCNC(=O)[C@@H]1C[C@@]2(C)C[C@H]2N1C(=O)Cn1nc(C(C)=O)c2cc(-c3cnc(C)nc3)cc(C)c21` [Compound 528, (1R,3S,5R)-2-(2-(3-acetyl-7-methyl-5-(2-methylpyrimidin-5-yl)-1H-indazol-1-yl)acetyl)-5-methyl-N-octyl-2-azabicyclo[3.1.0]hexane-3-carboxamide], the pIC50 is 5.00 to 6.00.
